The text below walks through data of patent publication US20150023883A1, “Antiperspirant Spray Devices and Compositions” (The Procter & Gamble Company, priority 2013, published 2015).

The text on this data set: Solubility may be determined by measuring the amount of light transmittance (a light transmittance value) through a simple mixture of the non-volatile silicone fluid and liquid activation enhancer at the same weight/weight concentrations as in a final antiperspirant composition.
Solubility of a liquid activation enhancer in a non-volatile silicone may be determined by measuring the amount of light transmittance (light transmittance value) through a simple mixture of the non-volatile silicone fluid and liquid activation enhancer at the same weight/weight concentrations as in a final antiperspirant composition.
The Spectronic Genesys 10 Vis utilizes a tungsten-halogen light source and has a spectral bandwidth of 5 nm, a wavelength range of 325 to 1100 nm, accuracy of ±1 nm and a repeatability of ±0.5 nm. Readouts include absorbance, transmittance and concentration. The spectrophotometer is set to 640 nm wavelength and the percent transmittance mode/readout. Polystyrene spectrometer cuvettes having a 1 cm optical light path and transmittance between ˜340 nm and ˜900 nm are used. One suitable example of a spectrometer cuvette is available from VWR International LLC under Catalog #97000-584 having a 2.5 to 4.5 ml capacity. The spectrophotometer is calibrated according to the manufacturer's instructions using a reference cuvette and composition comprised of just the non-volatile silicone fluid of interest. For example, if the test composition comprises 50 centistoke dimethicone and 15% w/w of isopropyl myristate, then the spectrometer is calibrated using a cuvette containing just 50 centistoke dimethicone. Sample cuvettes are filled sufficiently with a test composition of a non-volatile silicone fluid and liquid activation enhancer so that the light path of the spectrophotometer passes through the test composition in the cuvette. The sample cuvettes are shaken well just prior to taking a light transmittance reading.

`CCCCCCCCCCCCCCCCCC(=O)OCCCC` [butyl stearate]: the light transmittance value result is “about 100%”.

With `CCCCCCCCCCCCCC(C)C` [isohexadecane], the light transmittance value entry is listed as “about 100%” and the “solubility in 50 centistoke dimethicone” value is reported as “soluble”.

Take `CCCCCCCCCCCCCC(=O)OC(C)C` [isopropyl myristate]: the light transmittance value entry is “about 101%”.

Consider `CCCCCCCCCCCCCCCC(=O)OC(C)C` [isopropyl palmitate], for which the light transmittance value result was “about 101%”.

As to `CCCCCCCCCCC(CO)CCCCCCCC` (centres unmarked) [octyldodecanol], the “solubility in 50 centistoke dimethicone” value is “soluble in the 50 centistoke dimethicone at some (lower) concentrations”.

On to PPG-14 butyl ether, for which the “solubility in 50 centistoke dimethicone” value was “insoluble”.

In the case of mineral oil, the “solubility in 50 centistoke dimethicone” value is reported as “soluble in 50 centistoke dimethicone at some (lower) concentrations”.
